{"source": "PubChem BioAssay (NCI)", "experiment_in_all_cases": "NCI-60 cell line screen, 48 h", "key": {"IGROV1 ovarian": {"tested_on": "IGROV1 ovarian"}, "SNB-75 CNS": {"tested_on": "SNB-75 CNS"}, "OVCAR-3 ovarian": {"tested_on": "OVCAR-3 ovarian"}, "HOP-62 NSCLC": {"tested_on": "HOP-62 NSCLC"}, "SK-OV-3 ovarian": {"tested_on": "SK-OV-3 ovarian"}, "NCI/ADR-RES ovarian": {"tested_on": "NCI/ADR-RES ovarian"}, "U251 CNS": {"tested_on": "U251 CNS"}, "UACC-257 melanoma": {"tested_on": "UACC-257 melanoma"}, "SF-268 CNS": {"tested_on": "SF-268 CNS"}, "OVCAR-4 ovarian": {"tested_on": "OVCAR-4 ovarian"}, "CAKI-1 renal": {"tested_on": "CAKI-1 renal"}, "HT29 colon": {"tested_on": "HT29 colon"}, "NCI-H23 lung": {"tested_on": "NCI-H23 lung"}, "HS 578T breast": {"tested_on": "HS 578T breast"}, "SN12C renal": {"tested_on": "SN12C renal"}, "SW-620 colon": {"tested_on": "SW-620 colon"}, "786-0 renal": {"tested_on": "786-0 renal"}, "SF-539 CNS": {"tested_on": "SF-539 CNS"}, "SK-MEL-28 melanoma": {"tested_on": "SK-MEL-28 melanoma"}, "MALME-3M melanoma": {"tested_on": "MALME-3M melanoma"}, "SK-MEL-2 melanoma": {"tested_on": "SK-MEL-2 melanoma"}, "RXF 393 renal": {"tested_on": "RXF 393 renal"}, "OVCAR-5 ovarian": {"tested_on": "OVCAR-5 ovarian"}, "HCC-2998 colon": {"tested_on": "HCC-2998 colon"}, "HCT-15 colon": {"tested_on": "HCT-15 colon"}, "TK-10 renal": {"tested_on": "TK-10 renal"}, "LOX IMVI melanoma": {"tested_on": "LOX IMVI melanoma"}, "DU-145 prostate": {"tested_on": "DU-145 prostate"}, "BT-549 breast": {"tested_on": "BT-549 breast"}}, "note": "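Method: 48-hour compound exposure of cells in 96-well plates, five concentrations, linear interpolation of endpoints. GI50: concentration for 50% inhibition of growth. TGI marks complete inhibition of growth.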"}
{"molecule": "COc1ccc(-c2nc3cc(C)ccc3n2CC(=O)N=Nc2c(O)[nH]c3ccc(Br)cc23)cc1", "values": [{"measurement": "GI50", "setting": "IGROV1 ovarian", "value": 2.93, "unit": "µM"}, {"measurement": "TGI", "setting": "IGROV1 ovarian", "value": 18.2, "unit": "µM"}, {"measurement": "GI50", "setting": "SNB-75 CNS", "value": 1.61, "unit": "µM"}, {"measurement": "TGI", "setting": "SNB-75 CNS", "value": 12.7, "unit": "µM"}, {"measurement": "GI50", "setting": "OVCAR-3 ovarian", "value": 1.93, "unit": "µM"}, {"measurement": "TGI", "setting": "OVCAR-3 ovarian", "value": 4.29, "unit": "µM"}, {"measurement": "GI50", "setting": "HOP-62 NSCLC", "value": 2.31, "unit": "µM"}, {"measurement": "TGI", "setting": "HOP-62 NSCLC", "value": 9.66, "unit": "µM"}, {"measurement": "GI50", "setting": "SK-OV-3 ovarian", "value": 3.92, "unit": "µM"}, {"measurement": "TGI", "setting": "SK-OV-3 ovarian", "value": 38.3, "unit": "µM"}, {"measurement": "GI50", "setting": "NCI/ADR-RES ovarian", "value": 1.88, "unit": "µM"}, {"measurement": "TGI", "setting": "NCI/ADR-RES ovarian", "value": 5, "unit": "µM"}, {"measurement": "GI50", "setting": "U251 CNS", "value": 1.64, "unit": "µM"}, {"measurement": "TGI", "setting": "U251 CNS", "value": 3.55, "unit": "µM"}, {"measurement": "GI50", "setting": "UACC-257 melanoma", "value": 1.95, "unit": "µM"}, {"measurement": "TGI", "setting": "UACC-257 melanoma", "value": 6.33, "unit": "µM"}, {"measurement": "GI50", "setting": "SF-268 CNS", "value": 2.94, "unit": "µM"}, {"measurement": "TGI", "setting": "SF-268 CNS", "value": 31.7, "unit": "µM"}, {"measurement": "GI50", "setting": "OVCAR-4 ovarian", "value": 2.76, "unit": "µM"}, {"measurement": "TGI", "setting": "OVCAR-4 ovarian", "value": 11.2, "unit": "µM"}, {"measurement": "GI50", "setting": "CAKI-1 renal", "value": 3.6, "unit": "µM"}, {"measurement": "TGI", "setting": "CAKI-1 renal", "value": 29.1, "unit": "µM"}, {"measurement": "GI50", "setting": "HT29 colon", "value": 1.98, "unit": "µM"}, {"measurement": "TGI", "setting": "HT29 colon", "value": 4.36, "unit": "µM"}, {"measurement": "GI50", "setting": "NCI-H23 lung", "value": 1.93, "unit": "µM"}, {"measurement": "TGI", "setting": "NCI-H23 lung", "value": 5.88, "unit": "µM"}, {"measurement": "GI50", "setting": "HS 578T breast", "value": 1.96, "unit": "µM"}, {"measurement": "TGI", "setting": "HS 578T breast", "value": 6.44, "unit": "µM"}, {"measurement": "GI50", "setting": "SN12C renal", "value": 2.16, "unit": "µM"}, {"measurement": "TGI", "setting": "SN12C renal", "value": 10.6, "unit": "µM"}, {"measurement": "GI50", "setting": "SW-620 colon", "value": 2.4, "unit": "µM"}, {"measurement": "TGI", "setting": "SW-620 colon", "value": 9.15, "unit": "µM"}, {"measurement": "GI50", "setting": "786-0 renal", "value": 3.48, "unit": "µM"}, {"measurement": "TGI", "setting": "786-0 renal", "value": 16.6, "unit": "µM"}, {"measurement": "GI50", "setting": "SF-539 CNS", "value": 1.55, "unit": "µM"}, {"measurement": "TGI", "setting": "SF-539 CNS", "value": 3.36, "unit": "µM"}, {"measurement": "GI50", "setting": "SK-MEL-28 melanoma", "value": 1.51, "unit": "µM"}, {"measurement": "TGI", "setting": "SK-MEL-28 melanoma", "value": 2.96, "unit": "µM"}, {"measurement": "GI50", "setting": "MALME-3M melanoma", "value": 1.59, "unit": "µM"}, {"measurement": "TGI", "setting": "MALME-3M melanoma", "value": 3.2, "unit": "µM"}, {"measurement": "GI50", "setting": "SK-MEL-2 melanoma", "value": 3.28, "unit": "µM"}, {"measurement": "TGI", "setting": "SK-MEL-2 melanoma", "value": 18.6, "unit": "µM"}, {"measurement": "GI50", "setting": "RXF 393 renal", "value": 1.33, "unit": "µM"}, {"measurement": "TGI", "setting": "RXF 393 renal", "value": 3.54, "unit": "µM"}, {"measurement": "GI50", "setting": "OVCAR-5 ovarian", "value": 2.56, "unit": "µM"}, {"measurement": "TGI", "setting": "OVCAR-5 ovarian", "value": 13.6, "unit": "µM"}, {"measurement": "GI50", "setting": "HCC-2998 colon", "value": 2.75, "unit": "µM"}, {"measurement": "TGI", "setting": "HCC-2998 colon", "value": 16.4, "unit": "µM"}, {"measurement": "GI50", "setting": "HCT-15 colon", "value": 2.83, "unit": "µM"}, {"measurement": "TGI", "setting": "HCT-15 colon", "value": 16.9, "unit": "µM"}, {"measurement": "GI50", "setting": "TK-10 renal", "value": 3.63, "unit": "µM"}, {"measurement": "TGI", "setting": "TK-10 renal", "value": 20.6, "unit": "µM"}, {"measurement": "GI50", "setting": "LOX IMVI melanoma", "value": 1.48, "unit": "µM"}, {"measurement": "TGI", "setting": "LOX IMVI melanoma", "value": 3.29, "unit": "µM"}, {"measurement": "GI50", "setting": "DU-145 prostate", "value": 3.29, "unit": "µM"}, {"measurement": "TGI", "setting": "DU-145 prostate", "value": 16.1, "unit": "µM"}, {"measurement": "GI50", "setting": "BT-549 breast", "value": 2.05, "unit": "µM"}, {"measurement": "TGI", "setting": "BT-549 breast", "value": 5.92, "unit": "µM"}]}
